Test results: US5597899A, “Tumor necrosis factor muteins” (Hoffmann-La Roche Inc., priority 1993, dated 1997)

How the values were obtained:
[1] = system: human TNFR-p55; experiment: Solid phase radioligand competition binding assay, E. coli lysates, TNFR-p55; conditions: for Dilution of E. coli Lysate for 50% Inhibition of 125I-TNFα Binding (ID50) TNFR-p55: 10-fold serial dilutions 10^-2 to 10^-7, < = inhibition but below 50% at 1:100, << = no measurable inhibition at 1:100; for ID50 TNFR-p55 / ID50 TNFR-p75: ratio = 1 no receptor selectivity, > 1 TNFR-p55 selectivity, < 1 TNFR-p75 selectivity
Procedure: (§1) After 20 min incubation at room temperature 50 μl of 1M MgCl2, 20 μl of 5 mg/ml DNaseI, 50 μl of 5M NaCl and 50 μl of 10% NP-40 were added and the mixture was further incubated at room temperature for 15 min. 0.5 ml of the lysate clarified by centrifugation at 13'000 rpm for 5 min was subjected to ammonium sulfate precipitation (25%-70% cut). The 70% ammonium sulfat pellet was dissolved in 0.2 ml PBS and analyzed by sodium dodecyl sulfate polyacrylamide gel electrophoresis (SDS-PAGE) to confirm presence and approximate amount of the recombinant proteins.
TNFα was labelled by the Iodogen method (Pierce Chemical Company) to a specific activity of about 10-30 μCi/μg. The volume was 100 μl/well and each lysate dilution was assayed in duplicate or triplicate. After three hours at room temperature the wells were thoroughly washed with PBS and counted in a γ-counter. The results are given in Table 2 for lysates comprising the muteins indicated therein.

[2] = system: human TNFR-p75; experiment: Solid phase radioligand competition binding assay, E. coli lysates, TNFR-p75; conditions: 10-fold serial dilutions 10^-2 to 10^-7, < = inhibition but below 50% at 1:100, << = no measurable inhibition at 1:100
Procedure: as §1, with “10 ml suspensions of E. coli cells transformed and induced as described in Examples I and II were centrifuged at 4'000 rpm for 10 min and resuspended in 0.9 ml of lysis buffer (10 mM Tris-HCl pH 8.0, 5 mM EDTA, 2 mM PMSF, 10 mM benzamidine, 200 units/ml aprotinine and 0.1 mg/ml lysozyme). After” for “After”
96 well microtiter plates were coated with recombinant human […] TNFR-p75-hγ3 and TNFR-p55-hγ3 fusion proteins (extracellular portion of the receptor fused to the Fc part of human IgG3) at a concentration of 0.3 μg/ml and 0.1 μg/ml, respectively, in phosphate buffered saline (PBS, 100 μl/well, overnight at 4° C.) [Loetscher, H. et al. J. Biol. Chem. 266, 18324-18329 (1991); Lesslauer, W. et al. Eur. J. Immunol. 21, 2883-2886 (1991)]. After blocking with blocking buffer (50 mM Tris pH 7.4, 140 mM NaCl, 5 mM EDTA, 0.02% NAN3, 1% defatted milk powder) the microtiter plate was washed with PBS and incubated in blocking buffer containing 0.1% defatted milk powder with 10 ng/ml human wild-type ^125 I-TNFα and various dilutions of E. coli lysates ranging from 10^-2 to 10^-7 (10-fold serial dilutions). TNFα was labelled by the Iodogen method (Pierce Chemical Company) to a specific activity of about 10-30 μCi/μg. The volume was 100 μl/well and each lysate dilution was assayed in duplicate or triplicate. After three hours at room temperature the wells were thoroughly washed with PBS and counted in a γ-counter. The results are given in Table 2 for lysates comprising the muteins indicated therein.

Substance	Dilution of E. coli Lysate for 50% Inhibition of 125I-TNFα Binding (ID50) TNFR-p55 [1]	ID50 TNFR-p55 / ID50 TNFR-p75 [1]	Dilution of E. coli Lysate for 50% Inhibition of 125I-TNFα Binding (ID50) TNFR-p75 [2]
N34F: human TNFα mutein N34F	100 fold	> 1	< 100 fold
F144D: human TNFα mutein F144D	5,000 fold	15.2	330 fold
S147N: human TNFα mutein S147N	10,000 fold	1	10,000 fold
L75H: human TNFα mutein L75H	1,670 fold	0.7	2,500 fold
Q67Y: human TNFα mutein Q67Y	20,000 fold	0.6	33,330 fold
A33T: human TNFα mutein A33T	1,110 fold	0.9	1,250 fold
Q21S: human TNFα mutein Q21S	2,500 fold	1	2,500 fold
S86D: human TNFα mutein S86D	6,670 fold	6.7	1,000 fold
Q67T: human TNFα mutein Q67T	25,000 fold	0.75	33,330 fold
N34V: human TNFα mutein N34V	< 100 fold	> 1	< 100 fold
N34Q: human TNFα mutein N34Q	< 100 fold	> 1	< 100 fold
R31E: human TNFα mutein R31E	3,470 fold	19.3	180 fold
N34T: human TNFα mutein N34T	1,000 fold	> 10	< 100 fold
N34H: human TNFα mutein N34H	670 fold	> 6.7	< 100 fold
S147L: human TNFα mutein S147L	2,000 fold	0.6	3,330 fold
Y115W: human TNFα mutein Y115W	2,220 fold	1	2,220 fold
Y87T-E104G: human TNFα mutein Y87T-E104G	< 100 fold	1	< 100 fold

Substance	Dilution of E. coli Lysate for 50% Inhibition of 125I-TNFα Binding (ID50) TNFR-p55 [1]	ID50 TNFR-p55 / ID50 TNFR-p75 [1]	Dilution of E. coli Lysate for 50% Inhibition of 125I-TNFα Binding (ID50) TNFR-p75 [2]
I97Y: human TNFα mutein I97Y	2,500 fold	7.6	330 fold
H73Q: human TNFα mutein H73Q	10,000 fold	1	10,000 fold
L75R: human TNFα mutein L75R	< 100 fold	1	< 100 fold
F144Y: human TNFα mutein F144Y	2,860 fold	1	2,860 fold
S99Y: human TNFα mutein S99Y	< 100 fold	1	< 100 fold
N34C: human TNFα mutein N34C	250 fold	> 2.5	< 100 fold
D143W: human TNFα mutein D143W	< 100 fold	< 1	100 fold
A145S: human TNFα mutein A145S	14,290 fold	0.6	25,000 fold
D143F: human TNFα mutein D143F	< 100 fold	< 0.4	250 fold
N34Y: human TNFα mutein N34Y, listed twice (codons TAT and TAC)	< 100 fold	> 1	< 100 fold
A33D: human TNFα mutein A33D	< 100 fold	> 1	< 100 fold
N34I: human TNFα mutein N34I	200 fold	> 2	< 100 fold
R31N-R32T: human TNFα mutein R31N-R32T	3,260 fold	> 32.6	< 100 fold
N92R: human TNFα mutein N92R	5,000 fold	4	1,250 fold
A145G: human TNFα mutein A145G	2,500 fold	0.4	6,670 fold
H73T: human TNFα mutein H73T	2,000 fold	1	2,000 fold
F144L: human TNFα mutein F144L	5,000 fold	1	5,000 fold
